# Reference: patent US9381191B2, “Imidazopyridine derivatives useful in treating diabetes” (METABRAIN RESEARCH, priority 2012, dated 2016)
# Counter-ions that a name gives are not always drawn.
# How the values were obtained:
# isolated rat hepatocytes = assay: Hepatic production of glucose, 3 h incubation; format: cell-based, Wistar rat; details: for activity at 50 µM / activity at 100 µM: Hepatocyte, rat hepatocytes; for activity at 50 µM: read-out: HGP % of ctrl @ 50 μM; for activity at 100 µM: read-out: HGP % of ctrl @ 100 μM
# Procedure: The hepatocytes are isolated from Wistar rat liver having fasted for 24 h after perfusion of collagenase in the portal vein. 1) The freshly isolated hepatocytes are sown in 6-well plates coated with collagen and containing an adhesion medium (Williams Medium). After adhesion, the medium is replaced with RPMI 1640 medium without any glucose, containing hydrocortisone (7·10^−5M) for a duration from 16 to 18 h. The next day, the glucose hepatic production test is conducted in a Krebs medium for 3 h. The basal conditions are cells incubated with only Krebs, the stimulated conditions are the cells placed in Krebs+lactate+pyruvate, the produced conditions are the cells exposed to chemical compounds in a Krebs/lactate/pyruvate medium. In the case when the compounds are dissolved in DMSO, all the conditions of the tests are met in the presence of a final concentration of 0.1% DMSO. The positive control of the test is the mercaptopicolinate known for its inhibitory action on hepatic production of glucose via the phosphoenolpyruvate carboxykinase. For short term treatments, the compounds are incubated for 3 h. For long term treatments, the compounds are incubated for 20 h at the moment when the hepatocytes are cultivated in RPMI and then added during the hepatic production test for 3 h. At the end of the 3 hours of incubation, the supernatant is recovered for measurement of glucose with a colorimetric method using glucose oxidase. The cells are lysed with a 0.1% NaOH aqueous solution in order to measure the amount of protein with the Lowry method. The results are expressed in mmol of glucose per mg of protein.
# INS-1 cells = assay: Stimulation test of insulin secretion by INS-1 cells; format: cell-based; details: Rattus norvegicus, INS1, 1 h, insulin secretion by INS-1 cells in response to glucose; for insulin secretion, % of control at 10 µM: read-out: HGP % of ctrl @ 10 μM; for insulin secretion, % of control at 50 µM: read-out: HGP % of ctrl @ 50 μM
# Procedure: The different compounds were tested on an INS-1 beta-pancreatic line in order to evaluate their capability of potentializing the insulin secretion in response to glucose. Very briefly, the cells are cultivated in a culture medium, RPMI 1640 with 10 mM glucose containing 1 mM of sodium pyruvate, 50 μM of 2-mercaptoethanol, 2 mM of glutamine, 10 mM of HEPES, 100 IU/ml of penicillin, 100 μg/ml of streptomycin and 10% of inactivated fetal calf serum, as described by Asfari et al.. For the insulin secretion test, the INS-1 cells are sown and cultivated in 96-well plates. After 3 days of cultivation at 37° C. in a humid atmosphere (95% air/5% CO2), the medium is removed and the cells are incubated for 16 h in a medium containing 5 mM of glucose and 1% of inactivated fetal calf serum. On the day of the test, the cells are washed with a Krebs buffer (pH 7.4) containing 0.1% of bovine albumin and then pre-incubated for 30 min at 37° C. in this same buffer containing 2.8 mM of glucose. Finally, the cells are again washed with Krebs buffer and then incubated for 1 h in the buffer of the secretion test (Krebs, pH 7.4 containing 0.1% of bovine albumin and 3.5 mM of glucose and molecules to be evaluated). At the end of the test, the cell supernatant is recovered in order to measure therein the secreted insulin, by means of an ELISA kit using a rat anti-insulin antibody (ELISA Alpco Cat no. 80-INSRTH-E10). Each condition is tested in triplicate. The 3.5 mM glucose, the 10^−7M GLP-1 and the Forskoline 10^−7/IBMX 10^−5M mixtures are used as positive controls of the test. A compound stimulates the secretion of insulin if this factor is greater than or equal to 130% of the control for a given glucose dose.
SMILES,activity at 50 µM (isolated rat hepatocytes) [%],activity at 100 µM (isolated rat hepatocytes) [%],"insulin secretion, % of control at 10 µM (INS-1 cells) [%]","insulin secretion, % of control at 50 µM (INS-1 cells) [%]",inhibition of hepatic production of glucose (isolated rat hepatocytes; dose of 100 μM),inhibition of hepatic production of glucose (isolated rat hepatocytes; with two doses)
"CCOC(=O)COCc1nc2ccccn2c1C#Cc1ccccc1 [Derivative 1, ethyl 2-((3-(phenylethynyl)-imidazo[1,2-a]pyridin-2-yl)-methoxy)acetate]",70,56,121,211,–,–
"CCOC(=O)COCc1nc2ccccn2c1C#Cc1ccc(C)cc1 [Derivative 2, ethyl 2-((3-(p-tolylethynyl)-imidazo[1,2-a]pyridin-2-yl)-methoxy)acetate]",–,–,127,333,–,–
"CCOC(=O)COCc1nc2ccccn2c1C#Cc1ccc(F)cc1 [Derivative 3, ethyl 2-((3-((4-fluorophenyl)-ethynyl)imidazo[1,2-a]pyridin-2-yl)methoxy)acetate]",73,60,130,472,–,–
"CCOC(=O)COCc1nc2ccccn2c1C#Cc1ccc([N+](=O)[O-])cc1 [Derivative 5, ethyl 2-((3-((4-nitrophenyl)-ethynyl)imidazo[1,2-a]pyridin-2-yl)methoxy)acetate]",–,–,180,195,–,–
"CCOC(=O)COCc1nc2ccccn2c1C#Cc1ccsc1 [Derivative 9, ethyl 2-((3-(thiophen-3-ylethynyl)-imidazo[1,2-a]pyridin-2-yl)methoxy)acetate]",–,–,116,175,–,–
"CCOC(=O)COCc1nc2ccccn2c1C#Cc1cccc(C#N)c1 [Derivative 14, ethyl 2-((3-((3-cyanophenyl)-ethynyl)imidazo[1,2-a]pyridin-2-yl)methoxy)acetate]",86,73,100,242,–,–
"CCOC(=O)COCc1nc2ccccn2c1C#Cc1ccccc1F [Derivative 25, ethyl 2-((3-((2-fluorophenyl)-ethynyl)imidazo[1,2-a]pyridin-2-yl)methoxy)acetate]",83,73,134,226,–,–
"CCOC(=O)COCc1nc2ccccn2c1C#Cc1ccccc1C(F)(F)F [Derivative 26, ethyl 2-((3-((2-(trifluoromethyl)-phenyl)ethynyl)imidazo[1,2-a]pyridin-2-yl)methoxy)acetate]",78,67,138,246,–,–
"O=C(O)COCc1nc2ccccn2c1C#Cc1ccc(OC(F)(F)F)c(F)c1 [Derivative 39, 2-((3-((3-fluoro-4-(trifluoro-methoxy)phenyl)ethynyl)imidazo [1,2-a]pyridin-2-yl)methoxy)acetic acid]",–,–,121,137,–,–
"CN(C)CCNC(=O)COCc1nc2ccccn2c1C#Cc1cccc(C(F)(F)F)c1 [Derivative 55, N-(2-(dimethylamino)ethyl)-2-((3-((3-(trifluoromethyl)-phenyl)ethynyl)imidazo[1,2-a]-pyridin-2-yl)methoxy)acetamide]",–,–,130,135,–,–
"O=C(COCc1nc2ccccn2c1C#Cc1ccc(F)cc1)NO [Derivative 59, 2-((3-((4-fluorophenyl)ethynyl)-imidazo[1,2-a]pyridin-2-yl)methoxy)-N-hydroxy acetamide]",97,45,134,220,strongest inhibitions,–
"COC(=O)CN(C)Cc1nc2ccccn2c1C#Cc1cccc(C(F)(F)F)c1 [Derivative 72, methyl 2-(methyl((3-((3-(trifluoromethyl)-phenyl)ethynyl)-imidazo[1,2-a]pyridin-2-yl)methyl)amino)acetate]",–,–,172,151,–,–
"COC(=O)c1ccccc1OCc1nc2ccccn2c1C#Cc1ccc(F)cc1 [Derivative 76, methyl 2-((3-((4-fluorophenyl)-ethynyl)imidazo[1,2-a]pyridin-2-yl)methoxy)benzoate]",67,59,156,202,strongest inhibitions,–
"COC(=O)c1ccccc1OCc1nc2ccccn2c1C#Cc1ccccc1 [Derivative 78, methyl 2-((3-(phenylethynyl)-imidazo[1,2-a]pyridin-2-yl)methoxy)benzoate]",51,44,197,152,–,strongest inhibitions
"COC(=O)c1ccccc1OCc1nc2ccccn2c1C#Cc1cccc(C#N)c1 [Derivative 79, methyl 2-((3-((3-cyanophenyl)-ethynyl)imidazo[1,2-a]pyridin-2-yl)methoxy)benzoate]",86,74,128,152,–,–
"COC(=O)c1cccc(OCc2nc3ccccn3c2C#Cc2cccc(C(F)(F)F)c2)c1 [Derivative 81, methyl 3-((3-((3-(trifluoromethyl)-phenyl)ethynyl)imidazo[1,2-a]pyridin-2-yl)methoxy)benzoate]",76,47,142,134,strongest inhibitions,–
"CCOC(=O)CN(C)Cc1nc2ccccn2c1C#Cc1cccc(C(F)(F)F)c1 [Derivative 101, ethyl 2-[methyl-[[3-[2-[3-(trifluoromethyl)phenyl]ethynyl]imidazo[1,2-a]pyridin-2-yl]-methyl]amino]acetate hydrochloride]",–,–,163,111,–,–
"CCOC(=O)CN(C)Cc1nc2ccc(Cl)cn2c1C#Cc1cccc(C(F)(F)F)c1 [Derivative 102, ethyl 2-[[6-chloro-3-[2-[3-(trifluoromethyl)phenyl]ethynyl]imidazo[1,2-a]pyridin-2-yl]methyl-methyl-amino]acetate]",–,–,176,107,–,–
"CCOC(=O)[C@@H](N)CSCc1nc2ccccn2c1C#Cc1cccc(C(F)(F)F)c1 [Derivative 113, ethyl (2R)-2-amino-3-[[3-[2-[3-(trifluoromethyl)phenyl]ethynyl]imidazo[1,2-a]pyridin-2-yl]methyl-sulfanyl]propanoate]",–,–,136,112,–,–
"CC(C)(CO)C(OCc1nc2ccccn2c1C#Cc1cccc(C(F)(F)F)c1)C(=O)O (stereo not shown) [Derivative 129, 4-hydroxy-3,3-dimethyl-2-[[3-[2-[3-(trifluoromethyl)phenyl]ethynyl]imidazo[1,2-a]pyridin-2-yl]methoxy]butanoic acid]",–,–,109,146,–,–
"COc1cccn2c(C#Cc3cccc(C(F)(F)F)c3)c(CSCCO)nc12 [Derivative 130, 2-[[8-methoxy-3-[2-[3-(trifluoromethyl)phenyl]ethynyl]imidazo[1,2-a]pyridin-2-yl]methylsulfanyl]ethanol]",–,–,150,114,–,–
"OCCSCc1nc2ccc(Cl)cn2c1C#Cc1cccc(C(F)(F)F)c1 [Derivative 131, 2-[[6-chloro-3-[2-[3-(trifluoromethyl)phenyl]ethynyl]imidazo[1,2-a]pyridin-2-yl]methylsulfanyl]ethanol]",–,–,131,–,–,–
